Consider 24 compounds from patent publication US20130079373A1, “Substituted Methanesulfonamide Derivatives as Vanilloid Receptor Ligands” (priority 2011, published 2013).

For the experiment, the target named is T1, vanilloid receptor 1 (VR1/TRPV1 receptor) (Homo sapiens, UniProt Q8NER1).
T1 construct: expressed in transfected cells; host or cells: CHO K1
Nature of the experiment: Functional testing on the vanilloid receptor 1 (FLIPR Ca2+ influx assay, capsaicin stimulation). The format is cell-based. To be noted: Cap = capsaicin, human being; for Ki: Ki from IC50 by the Cheng-Prusoff equation, read-out: (f) Ki (human being) [nM] Cap; for inhibition at 5 µM: @5 μM compound. On the procedure:
Furthermore, preference may be given to compounds according to the invention that cause a 50 percent displacement of capsaicin, which is present at a concentration of 100 nM, in a FLIPR assay with CHO K1 cells which were transfected with the human VR1 gene at a concentration of less than 2,000 nM, preferably less than 1,000 nM, particularly preferably less than 300 nM, most particularly preferably less than 100 nM, even more preferably less than 75 nM, additionally preferably less than 50 nM, most preferably less than 10 nM.
In the process, the Ca^2+ influx is quantified in the FLIPR assay with the aid of a Ca^2+-sensitive dye (type Fluo-4, Molecular Probes Europe BV, Leiden, the Netherlands) in a fluorescent imaging plate reader (FLIPR, Molecular Devices, Sunnyvale, USA), as described hereinafter.
I. Functional Testing Carried Out on the Vanilloid Receptor 1 (VR1/TRPV1 Receptor) […]
The number of cells in the suspension is set to 3×10^5 per mL and 150 μL of this suspension are in each case introduced into a recess in the cell culture plates coated as described hereinbefore. In the incubator the plates are left for two to three days at 37° C., 5% by volume of CO2 and 95% relative humidity. Subsequently, the cells are loaded with 2 μM of Fluo-4 and 0.01% by volume of Pluronic F127 (Molecular Probes Europe BV, Leiden, the Netherlands) in HBSS buffer (Hank's buffered saline solution, Gibco Invitrogen GmbH, Karlsruhe, Germany) for 30 min at 37° C., washed 3 times with HBSS buffer and after further incubation for 15 minutes at room temperature used for Ca^2+ measurement in a FLIPR assay. The Ca^2+ dependent fluorescence is in this case measured before and after the addition of substances (λex=488 nm, λem=540 nm). Quantification is carried out by measuring the highest fluorescence intensity (FC, fluorescence counts) over time.
The FLIPR protocol consists of 2 substance additions. First the compounds to be tested (10 μM) are pipetted onto the cells and the Ca^2+ influx is compared with the control (capsaicin 10 μM). This provides the result in % activation based on the Ca^2+ signal after the addition of 10 μM of capsaicin (CP). After 5 minutes' incubation, 100 nM of capsaicin are applied and the Ca^2+ influx is also determined.
Desensitising agonists and antagonists lead to suppression of the Ca^2+ influx. The % inhibition is calculated compared to the maximum achievable inhibition with 10 μM of capsazepine.
Triple analyses (n=3) are carried out and repeated in at least 3 independent experiments (N=4).
Starting from the percentage displacement caused by different concentrations of the compounds to be tested of general formula I, IC50 inhibitory concentrations which cause a 50-percent displacement of capsaicin were calculated. Ki values for the test substances were obtained by conversion by means of the Cheng-Prusoff equation (Cheng, Prusoff; Biochem. Pharmacol. 22, 3099-3108, 1973).
The affinity of the compounds according to the invention for the vanilloid receptor 1 (VR1/TRPV1 receptor) was determined as described hereinbefore (pharmacological method I).

The mark [1] stands for this setting: read-out: inhibition (as a percentage), (f) (human being) Cap.

The structures appear in SMILES notation.

T1 sequence (Q8NER1 whole entry): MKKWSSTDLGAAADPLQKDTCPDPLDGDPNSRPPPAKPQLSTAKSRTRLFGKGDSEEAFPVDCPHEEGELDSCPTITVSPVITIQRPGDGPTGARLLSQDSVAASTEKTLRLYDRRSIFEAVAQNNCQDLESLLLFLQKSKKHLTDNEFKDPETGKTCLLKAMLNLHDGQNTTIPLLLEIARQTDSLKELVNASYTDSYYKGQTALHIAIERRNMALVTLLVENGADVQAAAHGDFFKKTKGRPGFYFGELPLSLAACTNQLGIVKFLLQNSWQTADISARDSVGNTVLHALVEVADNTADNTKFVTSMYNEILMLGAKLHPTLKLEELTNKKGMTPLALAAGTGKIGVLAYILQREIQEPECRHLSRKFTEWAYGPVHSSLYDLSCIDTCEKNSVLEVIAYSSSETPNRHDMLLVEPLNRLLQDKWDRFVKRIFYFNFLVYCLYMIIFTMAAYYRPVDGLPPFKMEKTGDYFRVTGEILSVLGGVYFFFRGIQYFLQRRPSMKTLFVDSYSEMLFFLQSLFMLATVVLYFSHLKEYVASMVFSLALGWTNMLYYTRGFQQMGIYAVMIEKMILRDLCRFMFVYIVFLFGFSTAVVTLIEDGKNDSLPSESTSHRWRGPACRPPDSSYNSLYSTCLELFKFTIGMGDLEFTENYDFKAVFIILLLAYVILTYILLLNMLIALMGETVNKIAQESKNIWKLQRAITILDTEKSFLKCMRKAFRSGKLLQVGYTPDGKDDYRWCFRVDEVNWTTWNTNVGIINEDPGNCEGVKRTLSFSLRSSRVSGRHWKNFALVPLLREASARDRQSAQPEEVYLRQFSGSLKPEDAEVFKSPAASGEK

Turning to `CCCCCc1nc(C(F)(F)F)ccc1CNC(=O)C(C)c1ccc(CNS(C)(=O)=O)c(F)c1` (stereo not drawn) [Example 1, 2-(3-fluoro-4-(methylsulfonamidomethyl)phenyl)-N-((2-pentyl-6-(trifluoromethyl)pyridin-3-yl)methyl)propanamide], the inhibition constant Ki was 14 nM. For the compound `COCCCc1nc(C(F)(F)F)ccc1CNC(=O)C(C)c1ccc(CNS(C)(=O)=O)c(F)c1` (stereo not drawn) [Example 2, 2-(3-fluoro-4-(methylsulfonamidomethyl)phenyl)-N-((2-(3-methoxypropyl)-6-(trifluoromethyl)pyridin-3-yl)methyl)propanamide], the inhibition at 5 µM under setting [1] was found to be 18%. As to `COCCOCc1nc(C(F)(F)F)ccc1CNC(=O)C(C)c1ccc(CNS(C)(=O)=O)c(F)c1` (stereo not drawn) [Example 3, 2-(3-fluoro-4-(methylsulfonamidomethyl)phenyl)-N-((2-((2-methoxyethoxy)methyl)-6-(trifluoromethyl)pyridin-3-yl)methyl)propanamide], the inhibition at 5 µM under setting [1] was 13%. Turning to `CC(C(=O)NCc1ccc(C(F)(F)F)nc1/C=C/C(C)(C)C)c1ccc(CNS(C)(=O)=O)c(F)c1` (stereo not drawn) [Example 4, (E)-N-((2-(3,3-dimethylbut-1-enyl)-6-(trifluoromethyl)pyridin-3-yl)methyl)-2-(3-fluoro-4-(methylsulfonamidomethyl)phenyl)propanamide], the Ki was found to be 12 nM. Turning to `CC(C(=O)NCc1ccc(C(F)(F)F)nc1C1CCCC1)c1ccc(CNS(C)(=O)=O)c(F)c1` (stereo not drawn) [Example 5, N-((2-cyclopentyl-6-(trifluoromethyl)pyridin-3-yl)methyl)-2-(3-fluoro-4-(methylsulfonamidomethyl)phenyl)propanamide], the Ki turned out to be 13 nM.

For the compound `CC(C(=O)NCc1ccc(C(F)(F)F)nc1C1CCCCC1)c1ccc(CNS(C)(=O)=O)c(F)c1` (stereo not drawn) [Example 6, N-((2-cyclohexyl-6-(trifluoromethyl)pyridin-3-yl)methyl)-2-(3-fluoro-4-(methylsulfonamidomethyl)phenyl)propanamide], the Ki stood at 15 nM. Still for that read-out and setting: for `CC(C)Oc1nc(C(F)(F)F)ccc1CNC(=O)C(C)c1ccc(CNS(C)(=O)=O)c(F)c1` (stereo not drawn) [Example 15, 2-(3-fluoro-4-(methylsulfonamidomethyl)phenyl)-N-((2-isopropoxy-6-(trifluoromethyl)pyridin-3-yl)methyl)propanamide] the value was 37 nM; for `CCCCOc1nc(C(F)(F)F)ccc1CNC(=O)C(C)c1ccc(CNS(C)(=O)=O)c(F)c1` (stereo not drawn) [Example 16, N-((2-butoxy-6-(trifluoromethyl)pyridin-3-yl)methyl)-2-(3-fluoro-4-(methylsulfonamidomethyl)phenyl)propanamide], 8 nM. Same read-out and setting: as for `CC(C(=O)NCc1ccc(C(F)(F)F)nc1OC1CCCC1)c1ccc(CNS(C)(=O)=O)c(F)c1` (stereo not drawn) [Example 20, N-((2-(cyclopentyloxy)-6-(trifluoromethyl)pyridin-3-yl)methyl)-2-(3-fluoro-4-(methylsulfonamidomethyl)phenyl)propanamide], the figure is 13 nM. Still for that read-out and setting: for `CC(C(=O)NCc1ccc(C(F)(F)F)nc1OC1CCOCC1)c1ccc(CNS(C)(=O)=O)c(F)c1` (stereo not drawn) [Example 25, 2-(3-fluoro-4-(methylsulfonamidomethyl)phenyl)-N-((2-(tetrahydro-2H-pyran-4-yloxy)-6-(trifluoromethyl)pyridin-3-yl)methyl)propanamide] the value was 111 nM. With `COc1cc(C(C)C(=O)NCc2ccc(C(F)(F)F)nc2OC(C)C)ccc1CNS(C)(=O)=O` (stereo not drawn) [Example 27, N-((2-isopropoxy-6-(trifluoromethyl)pyridin-3-yl)methyl)-2-(3-methoxy-4-(methylsulfonamidomethyl)phenyl)propanamide], the inhibition at 1 µM (@1 μM compound, read-out: inhibition (as a percentage), (f) (human being) Cap) stood at 15%. As to `CCCCOc1nc(C(F)(F)F)ccc1CNC(=O)C(C)c1ccc(CNS(C)(=O)=O)c(OC)c1` (stereo not drawn) [Example 29, N-((2-butoxy-6-(trifluoromethyl)pyridin-3-yl)methyl)-2-(3-methoxy-4-(methylsulfonamidomethyl)phenyl)propanamide], the Ki came to 61 nM.

`CCS(=O)(=O)NCc1ccc(C(C)C(=O)NCc2ccc(C(F)(F)F)nc2OC(C)C)cc1F` (stereo not drawn) [Example 30, 2-(4-(ethylsulfonamidomethyl)-3-fluorophenyl)-N-((2-isopropoxy-6-(trifluoromethyl)pyridin-3-yl)methyl)propanamide]: the Ki came to 70 nM. Still for that read-out and setting: as for `CCCCOc1nc(C(F)(F)F)ccc1CNC(=O)C(C)c1ccc(CNS(=O)(=O)CC)c(F)c1` (stereo not drawn) [Example 31, N-((2-butoxy-6-(trifluoromethyl)pyridin-3-yl)methyl)-2-(4-(ethylsulfonamidomethyl)-3-fluorophenyl)propanamide], the figure is 15 nM; as for `CC(C)Oc1nc(C(F)(F)F)ccc1CNC(=O)Nc1ccc(CNS(N)(=O)=O)cc1` [Example 32, 1-{[2-isopropoxy-6-(trifluoromethyl)pyridin-3-yl]methyl}-3-{4-[(sulfamoylamino)methyl]phenyl}urea], 10 nM; as for `CCCCOc1nc(C(F)(F)F)ccc1CNC(=O)Nc1ccc(CNS(N)(=O)=O)cc1` [Example 33, 1-{[2-butoxy-6-(trifluoromethyl)pyridin-3-yl]methyl}-3-{4-[(sulfamoylamino)methyl]phenyl}urea], 8 nM. Same read-out and setting: for `NS(=O)(=O)NCc1ccc(NC(=O)NCc2ccc(C(F)(F)F)nc2OC2CCCC2)cc1` [Example 34, 1-{[2-cyclopentyloxy-6-(trifluoromethyl)pyridin-3-yl]methyl}-3-{4-[(sulfamoylamino)methyl]phenyl}urea] the value was 1 nM; for `CCOc1nc(C(F)(F)F)ccc1CNC(=O)Nc1ccc(CNS(N)(=O)=O)c(F)c1` [Example 35, 1-{3-fluoro-4-[(sulfamoylamino)methyl]phenyl}-3-{[2-ethoxy-6-(trifluoromethyl)pyridin-3-yl]methyl}urea], 16 nM; for `CC(C)Oc1nc(C(F)(F)F)ccc1CNC(=O)Nc1ccc(CNS(N)(=O)=O)c(F)c1` [Example 36, 1-{3-fluoro-4-[(sulfamoylamino)methyl]phenyl}-3-{[2-isopropoxy-6-(trifluoromethyl)pyridin-3-yl]methyl}urea], 6 nM.

Take `CCCCOc1nc(C(F)(F)F)ccc1CNC(=O)Nc1ccc(CNS(N)(=O)=O)c(F)c1` [Example 37, 1-{3-fluoro-4-[(sulfamoylamino)methyl]phenyl}-3-{[2-butoxy-6-(trifluoromethyl)pyridin-3-yl]methyl}urea]: the Ki was found to be 7 nM. Still for that read-out and setting: for `NS(=O)(=O)NCc1ccc(NC(=O)NCc2ccc(C(F)(F)F)nc2OC2CCCC2)cc1F` [Example 38, 1-{3-fluoro-4-[(sulfamoylamino)methyl]phenyl}-3-{[2-cyclopentyloxy-6-(trifluoromethyl)pyridin-3-yl]methyl}urea] the value was 5 nM; for `CC(C(=O)NCc1ccc(C(F)(F)F)nc1SC1CCCCC1)c1ccc(CNS(C)(=O)=O)c(F)c1` (stereo not drawn) [Example 43, N-((2-(cyclohexylthio)-6-(trifluoromethyl)pyridin-3-yl)methyl)-2-(3-fluoro-4-(methylsulfonamidomethyl)phenyl)propanamide], 44 nM. Still for that read-out and setting: for `CC(C(=O)NCc1ccc(C(F)(F)F)nc1-c1ccc2cc[nH]c2c1)c1ccc(CNS(C)(=O)=O)c(F)c1` (stereo not drawn) [Example 44, N-((2-(1H-indol-6-yl)-6-(trifluoromethyl)pyridin-3-yl)methyl)-2-(3-fluoro-4-(methylsulfonamidomethyl)phenyl)propanamide] the value was 83 nM; for `CC(C(=O)NCc1ccc(C(F)(F)F)nc1-c1ccc2c(c1)OCO2)c1ccc(CNS(C)(=O)=O)c(F)c1` (stereo not drawn) [Example 45, N-((2-(benzo[d][1,3]dioxol-5-yl)-6-(trifluoromethyl)pyridin-3-yl)methyl)-2-(3-fluoro-4-(methylsulfonamidomethyl)phenyl)propanamide], 59 nM.
